From paper PMC13195669, “GPR3 Ligands Discovered through Combined Virtual and Conformational Biosensor-Based Screening” (Journal of the American Chemical Society, 2026)

Target: T1, GPR6 (Homo sapiens, UniProt P46095)
T1 construct: expressed in transfected cells; host or cells: HEK293A, transient
Experiment: cAMP GloSensor 22F, GPR6-transfected HEK293A cells
Type: cell-based
From the text: Next, we used the classical cAMP GloSensor technology to assess the target selectivity profile of 33. […] In addition, we tested the effects of 33 on cAMP changes mediated by agonist-stimulated GPCRs phylogenetically close to GPR3 and coupling to Gs or Gi/o proteins. […]
conditioning and no constraints were applied. The poses were visually inspected and the most favorable one that coincides with the co-solved ligand according to the available structures was chosen.
Plasmids and molecular cloning
The H187-EPAC-FRET sensor7 was kindly provided by K. Jalink (The Netherlands Cancer Institute, Amsterdam, The Nether-lands). The BRET-based cAMP sensor CAMYEL8 was kindly provided by Laura Humphrys (University of Regensburg, Regens-burg, Germany). Plasmids encoding the conformational biosensors α2AAR- and β2AR-HaloTag/Nluc9 and the Gs heterotrimer dissociation sensor10 were previously described. The expression plasmid encoding N-terminally HA-tagged GPR3 (cat. no.
#GPR003TN00) on a pcDNA3.1+ vector was obtained from the cDNA resource center (cdna.org). The Nluc and HaloTag in-serts were amplified with overhanging restriction sites from β2AAR- HaloTag/Nluc and ligated to the full-length C-terminus or inserted into icl3 of GPR3, respectively, to obtain the conformational biosensor GPR3-HaloTag/Nluc. […]

T1 sequence (P46095 whole entry, species assumed): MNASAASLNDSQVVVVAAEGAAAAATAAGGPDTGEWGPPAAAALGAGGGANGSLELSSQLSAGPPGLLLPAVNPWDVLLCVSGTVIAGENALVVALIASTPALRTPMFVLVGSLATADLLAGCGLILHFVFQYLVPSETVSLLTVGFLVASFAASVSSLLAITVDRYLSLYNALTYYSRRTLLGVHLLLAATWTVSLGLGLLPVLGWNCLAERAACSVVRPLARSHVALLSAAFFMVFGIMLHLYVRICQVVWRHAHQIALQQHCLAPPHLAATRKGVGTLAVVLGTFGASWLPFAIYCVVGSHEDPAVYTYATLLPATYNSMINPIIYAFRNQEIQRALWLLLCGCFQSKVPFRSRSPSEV

## N=c1n(Cc2ccccc2)c2ccccc2n1CC1CC1 [compound 33]
  receptor-specific change in cAMP, GPR6: no receptor-specific changes in cAMP levels below 100 μM
